# Test results as given in US5032576A, “Method for controlling female moths using a peptide” (The United States of America as represented by the …, priority 1989, dated 1991).
# Read-outs that look alike come from different tables or passages of the source. Where a SMILES comes first, the peptide text is derived from it.
# Legend:
# ligated H. zea females = test: Pheromone production bioassay: injection into ligated H. zea females; assay type: in vivo, Heliothis zea; conditions: for ng/Female H. zea (Z)-11-Hexadecenal: injected into ligated females
# [1] = system: D. nitidalis (pickle worm); conditions: (E)-11-hexadecenal per female ± SE, N = 5; 5 pmoles injected
# Method: (§1) Bioassay procedure is described in Example 6. Each female was injected
# (§2) of the synthetic peptide in 10 microliter of buffer. The major component
# (§3) Dose response of the peptide of Formula I, wherein X is Asp and Y is Leu(NH2): the peptide was dissolved in sucrose phosphate buffer and injected into ligated 3-day-old females during scotophase. Pheromone was extracted 3 hr after injection and quantified by capillary gas chromatography.
# [2] = system: H. virescens (tobacco budworm); conditions: (Z)-11-hexadecenal per female ± SE, N = 5; 5 pmoles injected
# Method: as §1, §2, §3
# L. dispar (gypsy moth) = conditions: cis-2-decyl-3-(5-methylhexyl) oxirane per female ± SE, N = 5; 5 pmoles injected
# Method: as §1, §2, §3
# [3] = system: M. sexta (tobacco hornworm); conditions: (E,Z)-10,12-hexadecadienal per female ± SE, N = 5; 5 pmoles injected
# Method: as §1, §2, §3
# [4] = system: O. nubilalis (European corn borer); conditions: (E)-11-tetradecen-1-ol acetate per female ± SE, N = 5; 5 pmoles injected
# Method: as §1, §2, §3
# [5] = system: S. frugiperda (fall armyworm); conditions: per female ± SE, N = 5; 5 pmoles injected
# Method: as §1, §2, §3
# [6] = system: third instar H. zea larvae
# Method: Peptide of the Formula I, wherein X is Asp and Y is Leu(NH2) was dissolved in sucrose phosphate buffer and serially diluted to obtain 0.1, 1.0, 10, 100, and 1000 pmoles/5 μL of buffer. The peptide was then injected into third instar H. zea larvae the day before their moult to fourth instar. Observations for melanization (intense black color formation) were recorded after 48 hr.
# [7] = system: ligated females of six other species of moths
# Method: as §1, §2
Compound,ng/Female H. zea (Z)-11-Hexadecenal (ligated H. zea females; Dose 1.0 pMole),ng/Female H. zea (Z)-11-Hexadecenal (ligated H. zea females; Dose 10.0 pMole),ng/Female H. zea (Z)-11-Hexadecenal (ligated H. zea females; Dose 100.0 pMole),pheromone production at doses greater than 4.0 pmoles (ligated H. zea females; doses greater than 4.0 pmoles),production of the sex pheromone (ligated H. zea females; injected into ligated H. zea females),Quantity of the Major Component in the Pheromone of Hex-PBAN injected Female [1],Quantity of the Major Component in the Pheromone of Hex-PBAN injected Female [2],Quantity of the Major Component in the Pheromone of Hex-PBAN injected Female (L. dispar (gypsy moth)),Quantity of the Major Component in the Pheromone of Hex-PBAN injected Female [3],Quantity of the Major Component in the Pheromone of Hex-PBAN injected Female [4],Quantity of the Major Component in the Pheromone of Hex-PBAN injected Female [5],"melanization ([6]; 10 pmole dose, recorded after 48 hr)","melanization ([6]; 10 pmoles/larva, after the moult to the fourth instar)","mortality ([6]; 10 pmoles/larva, associated with melanization)",quantity of pheromone produced relative to that found in normal females ([7]; in two of the six species),production of their respective pheromones ([7]; injected into ligated females of six other species),ng/Female H. zea (Z)-11-Hexadecenal (ligated H. zea females; Dose 1000.0 pMole)
CC[C@H](C)[C@H](NC(=O)[C@H](CCC(N)=O)NC(=O)[C@H](CCC(=O)O)NC(=O)[C@@H]1CCCN1C(=O)[C@H](CC(=O)O)NC(=O)[C@H](CCC(N)=O)NC(=O)[C@H](CCCNC(=N)N)NC(=O)[C@H](Cc1ccc(O)cc1)NC(=O)[C@H](CCSC)NC(=O)[C@H](CCC(=O)O)NC(=O)[C@H](CCC(N)=O)NC(=O)[C@H](CC(=O)O)NC(=O)[C@H](C)NC(=O)[C@@H]1CCCN1C(=O)[C@@H](NC(=O)[C@H](C)NC(=O)[C@@H]1CCCN1C(=O)[C@H](CCSC)NC(=O)[C@H](CC(=O)O)NC(=O)[C@H](CC(=O)O)NC(=O)[C@H](CO)NC(=O)[C@@H](N)CC(C)C)[C@@H](C)O)C(=O)N[C@@H](CC(=O)O)C(=O)N[C@@H](CO)C(=O)N[C@@H](CCCNC(=N)N)C(=O)N[C@H](C(=O)N[C@@H](CCCCN)C(=O)N[C@@H](Cc1ccc(O)cc1)C(=O)N[C@@H](Cc1ccccc1)C(=O)N[C@@H](CO)C(=O)N1CCC[C@H]1C(=O)N[C@@H](CCCNC(=N)N)C(=O)N[C@@H](CC(C)C)C(N)=O)[C@@H](C)O [Compound 1] (H-LSDDMPATPADQEMYRQDPEQIDSRTKYFSPRL-NH2),4.6 ng/Female,128.2 ng/Female,179.9 ng/Female,significant decrease,normal production,49.2 ± 16.3 ng,189.2 ± 12.2 ng,2.5 ± 0.4 ng,65.4 ± 11.9 ng,6.7 ± 1.1 ng,42.9 ± 12.2 ng,100%,intense melanization,significant mortality,6-7 times,significant amounts,
CC[C@H](C)[C@H](NC(=O)[C@H](CCC(N)=O)NC(=O)[C@H](CCC(=O)O)NC(=O)[C@@H]1CCCN1C(=O)[C@H](CC(=O)O)NC(=O)[C@H](CCC(N)=O)NC(=O)[C@H](CCCNC(=N)N)NC(=O)[C@H](Cc1ccc(O)cc1)NC(=O)[C@H](CCSC)NC(=O)[C@H](CCC(=O)O)NC(=O)[C@H](CCC(N)=O)NC(=O)[C@H](CC(=O)O)NC(=O)[C@H](C)NC(=O)[C@@H]1CCCN1C(=O)[C@@H](NC(=O)[C@H](C)NC(=O)[C@@H]1CCCN1C(=O)[C@H](CCSC)NC(=O)[C@H](CC(=O)O)NC(=O)[C@H](CC(=O)O)NC(=O)[C@H](CO)NC(=O)[C@@H](N)CC(C)C)[C@@H](C)O)C(=O)N[C@@H](CC(N)=O)C(=O)N[C@@H](CO)C(=O)N[C@@H](CCCNC(=N)N)C(=O)N[C@H](C(=O)N[C@@H](CCCCN)C(=O)N[C@@H](Cc1ccc(O)cc1)C(=O)N[C@@H](Cc1ccccc1)C(=O)N[C@@H](CO)C(=O)N1CCC[C@H]1C(=O)N[C@@H](CCCNC(=N)N)C(=O)N[C@@H](CC(C)C)C(N)=O)[C@@H](C)O [Compound 3] (H-LSDDMPATPADQEMYRQDPEQINSRTKYFSPRL-NH2),1.7 ng/Female,97.1 ng/Female,145.7 ng/Female,,,,,,,,,,,,,,
CC[C@H](C)[C@H](NC(=O)[C@H](CCC(N)=O)NC(=O)[C@H](CCC(=O)O)NC(=O)[C@@H]1CCCN1C(=O)[C@H](CC(=O)O)NC(=O)[C@H](CCC(N)=O)NC(=O)[C@H](CCCNC(=N)N)NC(=O)[C@H](Cc1ccc(O)cc1)NC(=O)[C@H](CCSC)NC(=O)[C@H](CCC(=O)O)NC(=O)[C@H](CCC(N)=O)NC(=O)[C@H](CC(=O)O)NC(=O)[C@H](C)NC(=O)[C@@H]1CCCN1C(=O)[C@@H](NC(=O)[C@H](C)NC(=O)[C@@H]1CCCN1C(=O)[C@H](CCSC)NC(=O)[C@H](CC(=O)O)NC(=O)[C@H](CC(=O)O)NC(=O)[C@H](CO)NC(=O)[C@@H](N)CC(C)C)[C@@H](C)O)C(=O)N[C@@H](CC(N)=O)C(=O)N[C@@H](CO)C(=O)N[C@@H](CCCNC(=N)N)C(=O)N[C@H](C(=O)N[C@@H](CCCCN)C(=O)N[C@@H](Cc1ccc(O)cc1)C(=O)N[C@@H](Cc1ccccc1)C(=O)N[C@@H](CO)C(=O)N1CCC[C@H]1C(=O)N[C@@H](CCCNC(=N)N)C(=O)N[C@@H](CC(C)C)C(=O)O)[C@@H](C)O [Compound 4] (H-LSDDMPATPADQEMYRQDPEQINSRTKYFSPRL-OH),,0.9 ng/Female,3.2 ng/Female,,,,,,,,,,,,,,112.1 ng/Female
